We go through one compound from US20230096663A1, “FARNESOID X RECEPTOR MODULATING COMPOUNDS AND METHODS OF USING THE SAME” (Inorbit Therapeutics AB, priority 2020, published 2023).

Where two headings read alike, the source gives them in different places.

Data set [1] is described as follows: Compound exposure in plasma and liver of HFHC fed male mice. It counts as in vivo. The conditions noted are these: C57BL/6J, mouse, oral; for Kp at 4 h: liver/plasma, 4 hours after last dose on day 28, read-out: Ratio (liver to plasma exposure).
Another data set concerns STAM model NASH mice. Description: In-vivo efficacy in STAM model of non-alcoholic steatohepatitis. Conditions: oral once daily for three weeks, 0.3, 1 or 3 mg/kg. As for the experimental part: NASH was induced in male mice by a single subcutaneous injection of 200 μg streptozotocin (STZ, Sigma-Aldrich, USA) solution 2 days after birth and feeding with high fat diet (HFD, 57 kcal % fat, Cat #HFD32, CLEA Japan, Inc., Japan) after 4 weeks of age. NASH model mice were randomized into groups of 8 mice at 6 weeks of age based on their body weight the day before the start of treatment. The compound of Example 2 was then administered orally in a volume of 10 ml/kg at dose levels 0.3 mg/kg, 1 mg/kg and 3 mg/kg once daily for 3 weeks. […] NAFLD Activity score (NAS) was calculated according to the criteria of Kleiner (Kleiner D E. et al., Hepatology, 2005; 41:1313). […] For quantitative analysis of fibrosis area, bright field images of Sirius red-stained sections were captured around the central vein using a digital camera (DFC295; Leica, Germany) at 200-fold magnification, and the positive areas in 5 fields/section were measured using ImageJ software (National Institute of Health, USA). […] The score can be used to quantify changes in NAFLD during disease progression and on administration of potential therapeutics. In order to quantify the degree of fibrosis Sirius red stained liver sections were used to visualise and study collagen distribution.

A short description of data set [2]: Metabolic identification in human hepatocytes. Type of data set: in vitro ADME. The protocol:
(§1) A 10 mM stock of test compound from Example 2 (sodium 2-(3-((5-cyclopropyl-3-(2-(trifluoromethoxy)phenyl)isoxazol-4-yl)methoxy)-8-azabicyclo[3.2.1]octan-8-yl)-4-fluorobenzo[d]thiazole-6-sulfinate) was prepared in DMSO. 20 μM of final working stock was then prepared by diluting 4 μL of 10 mM stock in 1996 μL of Krebs-Hensleit buffer. 200 μL of hepatocyte cell suspension (2×10^6 cells/mL) was added to TPP 48 well plate and preincubated for 30 min @ 37° C. in incubator. 200 μL of 20 μM working stock of test compound was added to the cell suspension and incubated in an incubator on vibramax at a shaking speed of 500 rpm. For the 0 min sample, 25 μL of hepatocyte suspension was precipitated with 200 μL of acetonitrile and 25 μL of 20 μM test compound was added. The reaction was stopped at 15, 30, 60, 90, 120 min by precipitating 50 μL of incubation mixture with 200 μL of acetonitrile. The samples were vortexed for 5 min at 1200 rpm and centrifuged at 4000 rpm for 10 min. The supernatant was separated, diluted 2 fold with water and analysed using a HPLC (Shimadzu SIL HTS) and mass spectrometer (5500 Qtrap). Acetonitrile and 0.1% formic acid in Milli-q-water were used as the mobile phase, using a column of either Waters Xbridge C18, 250×3.0 mm, 5.0μ particle size or Phenomnex kinetex 5μ EVO C18 100 A, 50×4.6 mm 5.0μ particle size.
Table 4 summarizes the major metabolites observed when the compound of Example 2 of the invention was incubated in human, dog or mouse hepatocytes.

The nature of data set [3]: Metabolic identification in dog hepatocytes. Type of data set: in vitro ADME. The conditions noted are these: up to 120 min. As for the experimental part: as §1, with “size. […]” for “size.”
A short description of data set [4]: Metabolic identification in mouse hepatocytes. Type of data set: in vitro ADME. The conditions noted are these: up to 120 min. As for the experimental part:
as §1, with “size. […]” for “size.”

As to `O=S([O-])c1cc(F)c2nc(N3[C@@H]4CC[C@H]3C[C@@H](OCc3c(-c5ccccc5OC(F)(F)F)noc3C3CC3)C4)sc2c1.[Na+]` [Example 2, Sodium 2-(3-((5-cyclopropyl-3-(2-(trifluoromethoxy)phenyl)isoxazol-4-yl)methoxy)-8-azabicyclo[3.2.1]octan-8-yl)-4-fluorobenzo[d]thiazole-6-sulfinate], the concentration at 4 h in data set [1] (liver, 3 mg/kg, 3 mg/kg BID oral, 4 hours after last dose on day 28, read-out: Mean compound exposure, Liver) worked out at 54.8 ng/g; in data set [1] (liver, 10 mg/kg, 10 mg/kg BID oral, 4 hours after last dose on day 28, read-out: Mean compound exposure, Liver), 138 ng/g; in data set [1] (liver, 10 mg/kg, 10 mg/kg QD oral, 4 hours after last dose on day 28, read-out: Mean compound exposure, Liver), 80.1 ng/g; in data set [1] (plasma, 3 mg/kg, 3 mg/kg BID oral, 4 hours after last dose on day 28, read-out: Mean compound exposure, Plasma) it was 1 ng/mL; in data set [1] (plasma, 10 mg/kg, 10 mg/kg BID oral, 4 hours after last dose on day 28, read-out: Mean compound exposure, Plasma), 2.1 ng/mL; in data set [1] (plasma, 10 mg/kg, 10 mg/kg QD oral, 4 hours after last dose on day 28, read-out: Mean compound exposure, Plasma), 1.2 ng/mL. The Kp at 4 h in data set [1] (3 mg/kg, 3 mg/kg BID oral) came to 54.8; in data set [1] (10 mg/kg, 10 mg/kg BID oral) it was 65.9; in data set [1] (10 mg/kg, 10 mg/kg QD oral), 66.8. Besides, the “Fibrosis area (Sirius red positive area)” value in the data set with STAM model NASH mice is “Significant reductions”. In addition, the “NAFLD Activity score (NAS)” value with STAM model NASH mice was “Significant reductions”. Besides, the “Major metabolite by MS/MS (FIG. 14)” value in data set [2] (120 mins) is “hydroxy compound”. For the same compound, the Acyl-Glucuronide entry in data set [2] (up to 120 min), in data set [3] and in data set [4] was “No” in each case. Further, the “Observed Major Metabolites” value was “Hydroxy, Alkenyl and Alkenyl-hydroxy” in data set [2] (up to 120 min); “Hydroxy, Di-hydroxy and Alkenyl-hydroxy” in data set [4].
